Test results as given in the supplement of paper PMC10307832.

What was measured:
Test in all cases: relative viability (nuclei count vs DMSO), 5 days (fraction); higher = more cells survive
Zebularine + Linsitinib = compound: O=c1ncccn1[C@@H]1O[C@H](CO)[C@@H](O)[C@H]1O [Zebularine] + C[C@]1(O)C[C@@H](c2nc(-c3ccc4ccc(-c5ccccc5)nc4c3)c3c(N)nccn32)C1 [Linsitinib] (partner 1 µM)
Method in brief: (§1)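 Relative viability was taken as the ratio of nuclei in treated wells to nuclei in vehicle wells. Lung cancer cell lines in 1536-well plates received compounds by pin tool one day after seeding, either one drug alone or a fixed anchor-drug dose plus five library-drug doses (not always all listed) in √10 steps. Nuclei were counted on 4× images after 5 days of treatment, and values are medians of duplicate plates.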

Zebularine + Navitoclax = compound: O=c1ncccn1[C@@H]1O[C@H](CO)[C@@H](O)[C@H]1O [Zebularine] + CC1(C)CCC(c2ccc(Cl)cc2)=C(CN2CCN(c3ccc(C(=O)NS(=O)(=O)c4ccc(N[C@H](CCN5CCOCC5)CSc5ccccc5)c(S(=O)(=O)C(F)(F)F)c4)cc3)CC2)C1 [Navitoclax] (partner 0.5 µM)
Method in brief: as §1

Zebularine + Palbociclib = compound: O=c1ncccn1[C@@H]1O[C@H](CO)[C@@H](O)[C@H]1O [Zebularine] + CC(=O)c1c(C)c2cnc(Nc3ccc(N4CCNCC4)cn3)nc2n(C2CCCC2)c1=O [Palbociclib] (partner 0.5 µM)
Method in brief: as §1

BI-D1870 + Alpelisib = compound: CC(C)CCN1c2nc(Nc3cc(F)c(O)c(F)c3)ncc2N(C)C(=O)C1C [BI-D1870] + Cc1nc(NC(=O)N2CCC[C@H]2C(N)=O)sc1-c1ccnc(C(C)(C)C(F)(F)F)c1 [Alpelisib] (partner 2 µM)
Method in brief: as §1

## UMC-11
Zebularine + Linsitinib; first compound 1 µM
  relative viability: 1.21
Zebularine + Linsitinib; first compound 3.162 µM
  relative viability: 1.02
Zebularine + Linsitinib; first compound 10 µM
  relative viability: 0.691
Zebularine + Linsitinib; first compound 31.62 µM
  relative viability: 0.574
Zebularine + Linsitinib; first compound 100 µM
  relative viability: 0.418
Zebularine + Navitoclax; first compound 1 µM
  relative viability: 0.316
Zebularine + Navitoclax; first compound 3.162 µM
  relative viability: 0.328
Zebularine + Navitoclax; first compound 10 µM
  relative viability: 0.265
Zebularine + Navitoclax; first compound 31.62 µM
  relative viability: 0.344
Zebularine + Navitoclax; first compound 100 µM
  relative viability: 0.238
Zebularine + Palbociclib; first compound 1 µM
  relative viability: 0.329
Zebularine + Palbociclib; first compound 3.162 µM
  relative viability: 0.315
Zebularine + Palbociclib; first compound 10 µM
  relative viability: 0.312
Zebularine + Palbociclib; first compound 31.62 µM
  relative viability: 0.344
Zebularine + Palbociclib; first compound 100 µM
  relative viability: 0.308
BI-D1870 + Alpelisib; first compound 0.04 µM
  relative viability: 1.05
BI-D1870 + Alpelisib; first compound 0.1265 µM
  relative viability: 0.935
BI-D1870 + Alpelisib; first compound 0.4 µM
  relative viability: 1
BI-D1870 + Alpelisib; first compound 1.265 µM
  relative viability: 1.05
BI-D1870 + Alpelisib; first compound 4 µM
  relative viability: 1.02
